Several values for one entry are separate records, joined by “and”; a condition that tells them apart may be missing. Equal entries are not always repeated.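 Method: 48-hour compound exposure of cells in 96-well plates, five concentrations, linear interpolation of endpoints. GI50 is the concentration that inhibits growth by half. TGI marks complete inhibition of growth.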 Where a SMILES comes first, the peptide text is derived from it. The star is where a group is joined. Cbz = O=C(OCc1ccccc1)*
test system: OVCAR-5 ovarian; experiment: NCI tumour cell line growth inhibition, 48 h

Row | Compound | TGI | GI50 [µM]
1 | NCCCN(CCCN)CCc1cn(C(=O)c2ccccc2)cn1 | 33.4 µM | 
2 | COc1cccc(-c2nc(-c3cnccn3)n(C/C=C/c3ccccc3)n2)c1 | > 10 µM | 
3 | CC1(C)O[C@H]2OC(CO)C(N=[N+]=[N-])[C@H]2O1 (some centres not stated) | > 100 µM | 
4 | Cc1[nH]n(-c2nc(O)c(-c3ccccc3)c(=O)[nH]2)c(=O)c1CCO | > 100 µM | 
5 | C=C1CC[C@H]2C(=O)OC(c3ccoc3)C[C@]2(C)C/C=C\C=C/1C(=O)OC (some centres not stated) | > 25 µM | 
6 | CC(NC(=O)Cc1ccccc1)NC(=O)C(C)C(=O)NCc1ccccc1 (configuration not stated) | > 100 µM | 
7 | CCOC(=O)CCC(NC(=O)C(Cc1ccccc1)NC(=O)OCc1ccccc1)C(=O)OCC (stereo not drawn) (Cbz-Phe-Glu(OEt)-OEt; configuration not given here) | 32.6 µM | 
8 | CCCCC1Cc2cc(O)ccc2-c2nc3cc(O)ccc3n21 (configuration not stated) (tested in a mixture with another compound) | 34.8 µM | 
9 | COC(=O)N[C@H](C(=O)NC(OCc1ccccc1)C1COC(C)(C)O1)C(C)O[Si](C)(C)C(C)(C)C (some centres not stated) | > 100 µM | 
10 | CC(=O)c1ccc2c(c1)C(=O)c1sc(C(C)=O)cc1C2=O | 2.36 µM and 3.92 µM | 1.87
11 | CCOP(=O)(OCC)/C(C#N)=C/c1ccc(-c2cc(C(F)(F)F)cc(C(F)(F)F)c2)o1 | 26.1 µM | 
12 | CC(=O)Nc1c(C(=N)C#N)ncn1CCO | > 100 µM | 
13 | CN1CCN(/C(N)=C(\C#N)C(=O)Nc2ccc(Cl)cc2)CC1 | > 100 µM | 
14 | O=C(NCCN1CCOCC1)c1ccc(I)cc1 | > 100 µM | 
15 | CN1CCCOC(c2ccc(Cl)cc2)O1 (configuration not stated) | > 100 µM | 
16 | CCC1CC(O)c2c(O)c3c(c(O)c2C1O)C(=O)c1cccc(O)c1C3=O (configuration not stated) (tested in a mixture with another compound) | 0.0301 µM | 
17 | COc1ccc(/C(Cl)=C(\C#N)c2ccc(OC)c(OC)c2)cc1OC | > 100 µM | 
18 | CCOC(=O)CCC1(CCC(=O)OCC)CCCCCCCCC(CCC(=O)OCC)(CCC(=O)OCC)C(=O)C1=O | > 100 µM | 
19 | Cc1ccc2c(c1)CC1(Cc3cccc(C)c3C1=O)C2=O (configuration not stated) | > 100 µM | 
20 | O=c1[nH]nc(Cc2ccc(Cl)cc2)n1/N=C/c1cccs1 | > 100 µM | 
21 | COCn1cnc2c(=O)nc(SC)n(-c3ccccc3)c21 | > 100 µM | 

test system: SF-295 CNS; experiment: NCI tumour cell line growth inhibition, 48 h

Row | Compound | TGI | GI50 [µM]
22 | COc1ccc(CNc2nc(NC3CCCCC3)nc(NC3CCCCC3)n2)cc1 | > 100 µM | 
23 | S=C1NCCN1C(=S)Nc1ccccc1 | > 100 µM | 
24 | CCOC(=O)c1ccc(-c2ccc(Cl)cc2)[nH]1 | > 10 µM | 
25 | CC1CC(Nc2ccc(Br)cc2)N(C(=O)c2ccc(Br)cc2)O1 (configuration not stated) | > 10 µM | 
26 | OC(C/C=N/N=C/CC(O)(C(F)(F)Cl)C(F)(F)Cl)(C(F)(F)Cl)C(F)(F)Cl | > 10 µM | 
27 | COc1cc2c(cc1O)NC(=O)[C@@H]1CCCN1C2=O | > 100 µM | 
28 | COc1ccc2nc(-c3ccccc3)c(=O)[nH]c2c1 | > 100 µM | 
29 | O=C1C=C(Nc2ccc(S(=O)(=O)Nc3nccs3)cc2)c2ccccc2C1=O | 32.3 µM | 
30 | C=CC1(CC[C@]2(c3ccc(OC)c(OC)c3)C=[N+]([O-])O[C@H](O[C@@H]3CCCC[C@H]3C(C)(C)c3ccccc3)C2)OCC(C)(C)CO1 | > 51.2 µM | 
31 | Oc1c(Br)ccc2cccnc12 | 14.9 µM | 
32 | O=c1[nH]c2nc3ccccc3c(=O)n2/c1=C/c1cccs1 | > 100 µM | 
33 | Cc1cc(C)nc(NC(P(=O)(O)O)P(=O)(O)O)n1 | > 100 µM | 
34 | O=C1c2c(Br)sc(Br)c2C(=O)C1(O)O | > 100 µM | 
35 | O=C1CCSCCC(=O)Nc2ccccc2N1 | > 100 µM | 
36 | COc1ccc(N2C(=O)C(=O)N(c3ccc(N=Nc4ccccc4)cc3)C2=S)cc1 | 35.4 µM | 
37 | CC(=O)SC(C[N+](=O)[O-])c1ccc2c(c1)OCO2 (configuration not stated) | 26.1 µM | 
38 | Cc1ccc(CSC(N)=Nc2ccccc2)cc1C | > 100 µM | 
39 | C=C1CCCCCCCCC/C=C/1SCCCSC | > 100 µM | 
40 | COc1cc(Nc2nc3cc(C(F)(F)F)ccc3nc2C(=O)O)cc(OC)c1OC | 67.8 µM | 
41 | CCOc1cc(NC(C)=O)ccc1C(=O)NNS(=O)(=O)c1ccc(NC(C)=O)cc1 | > 100 µM | 
42 | NCCCN(CCCN)CCc1cn(C(=O)c2ccccc2)cn1 | 30.7 µM | 
43 | COc1cccc(-c2nc(-c3cnccn3)n(C/C=C/c3ccccc3)n2)c1 | > 10 µM | 
44 | CC1(C)O[C@H]2OC(CO)C(N=[N+]=[N-])[C@H]2O1 (some centres not stated) | > 100 µM | 
45 | Cc1[nH]n(-c2nc(O)c(-c3ccccc3)c(=O)[nH]2)c(=O)c1CCO | > 100 µM | 
46 | C=C1CC[C@H]2C(=O)OC(c3ccoc3)C[C@]2(C)C/C=C\C=C/1C(=O)OC (some centres not stated) | > 25 µM | 
47 | CC(NC(=O)Cc1ccccc1)NC(=O)C(C)C(=O)NCc1ccccc1 (configuration not stated) | > 100 µM | 
48 | CCOC(=O)CCC(NC(=O)C(Cc1ccccc1)NC(=O)OCc1ccccc1)C(=O)OCC (stereo not drawn) (Cbz-Phe-Glu(OEt)-OEt; configuration not given here) | 34.1 µM | 
49 | CCCCC1Cc2cc(O)ccc2-c2nc3cc(O)ccc3n21 (configuration not stated) (tested in a mixture with another compound) | 33.4 µM | 
50 | CC(=O)c1ccc2c(c1)C(=O)c1sc(C(C)=O)cc1C2=O | 1.84 µM and 3 µM | 1.56

Source: PubChem BioAssay (NCI)
